Drawing on the RepoRT retention time repository, this text covers LC retention time for 65 molecules.

A short description of this data set: RP, Waters ACQUITY UPLC BEH C18, 50 × 2.1 mm, 1.7 µm, 40 °C, 0.6 mL/min, estimated dead time 0.18 min; A: water + 0.1% formic acid, pH 3; B: acetonitrile + 0.1% formic acid, pH 3; gradient (min/%B) 0/5 7/100 8/100. As to conditions: stereoisomer not certain.
For `CC(=O)OC(C)(C)/C=C/C(=O)[C@](C)(O)[C@H]1[C@H](O)C[C@@]2(C)[C@@H]3CC=C4C(C=C(O)C(=O)C4(C)C)[C@]3(C)C(=O)C[C@]12C` (stereo not given in full), the LC retention time is 3.63 min.

Take `CC1CCC2(C)C(CCC3OC32C)C1(C)CC(=O)c1ccoc1` (stereo not given): the LC retention time was 3.41 min.

Take `CC1CC(C2CCC3N2CCCCC32CC(C)C(=O)O2)OC1=O` (stereo not given): the LC retention time is 1.07 min.

Consider `CC12CCCc3coc(c31)C(=O)c1cc3c(cc12)C(=O)C=CC3=O` (stereo not given), for which the LC retention time was 2.6 min.

On to `CC(C)=CC1CC(C2CCC3(C)C4=CCC5C(C)(C)C(=O)CCC5(C)C4CC(C=O)=C23)C(O)O1` (stereo not given), for which the LC retention time is 4.03 min.

`C=C(C(=O)C(OC(C)=O)C(C)C1C(OC(C)=O)CC2(C)C3CCC4C(C)C(=O)C=CC45CC35CCC12C)C(C)CO` (stereo not given): the LC retention time was 4.41 min.

Consider `CC[C@@H]1C(=O)N2CCc3c([nH]c4ccccc34)[C@H]2CC1/C(=C\OC)C(=O)OC` (stereo not given in full), for which the LC retention time is 2.38 min.

On to `C=C(C(=O)C(O)C(C)C1C(OC(C)=O)CC2(C)C3CC(O)C4C(C)C(=O)C=CC45CC35CCC12C)C(C)CO` (stereo not given), for which the LC retention time was 3.41 min.

`COc1cc(/C=C/C(=O)OCC(Cc2ccc(O)c(OC)c2)C(COC(C)=O)Cc2ccc(O)c(OC)c2)ccc1O` (stereo not given): the LC retention time was 2.3 min.

For the molecule `C=C1[C@@H](O)C[C@@H]2[C@](C)(CCC[C@@]2(C)C(=O)O)[C@H]1CC1C(C)=CCC2C(=O)C(OC)=CC(=O)C21c1cc(=O)c2c(O)cc(O)cc2o1` (stereo not given in full), the LC retention time is 2.95 min.

Take `C=CCc1ccc(O)c(-c2ccc(O)c(CC=C)c2)c1` [3',5-bis(prop-2-en-1-yl)-[1,1'-biphenyl]-2,4'-diol]: the LC retention time was 3.18 min.

For `COC1=CC(=O)C2(c3cc(=O)c4c(O)cc(O)cc4o3)C(CC=C(C)C2C[C@@]2(O)C(C)(O)CC[C@H]3C(C)(C)C[C@H](O)C[C@@]32C)C1=O` (stereo not given in full), the LC retention time is 1.09 min.

Regarding `COc1ccc2c3c1OC1C(O)C=CC4C(C2)N(C)CCC341` (stereo not given), the LC retention time was 0.85 min.

As to `CC[C@H]1C[C@@H]2CN3CCc4c([nH]c5ccccc45)[C@](C(=O)OC)(C2)[C@H]13`, the LC retention time is 2.05 min.

For `CCC(O)c1cc(=O)oc2c(C(=O)CC(C)C)c(O)c(CC=C(C)C)c(O)c12` (stereo not given), the LC retention time was 5.49 min.

In the case of `COc1cc(/C=C/C(=O)OC2CC3(C)CCC2C3(C)C)ccc1O` (stereo not given), the LC retention time was 4.97 min.

Regarding `CC(C)=CCc1c2c(c(O)c3c1OC14C(=CC5CC1C(C)(C)OC4(CC=C(C)C(=O)O)C5=O)C3=O)C=CC(C)(C)O2` (stereo not given), the LC retention time is 5.38 min.

Consider `COc1c(O)c(C(=O)C2CC=C(CCC=C(C)C)CC2c2ccccc2)c(OC)c(OC)c1OC` (stereo not given), for which the LC retention time is 5.69 min.

As to `CCCCCCCCCCCCCCCC(=O)OC12CC(C)C3(O)C(C4OC4(CO)C(O)C4(O)C(=O)C(C)=CC43)C1C2(C)C` (stereo not given), the LC retention time is 6.96 min.

As for `C=C1C(=O)O[C@@H]2C[C@@]3(C)CCC[C@H](C)C3=C[C@H]12`, the LC retention time was 4.26 min.

As for `COc1cc2c3cc1Oc1c(cccc1OC)CC1c4c(cc(OC)c(OC)c4Oc4cccc(c4)CC3N(C)CC2)CCN1C` (stereo not given), the LC retention time is 1.7 min.

`COc1cc(/C=C/c2ccc(OCC=C(C)C)cc2)cc(OC)c1`: the LC retention time is 5.37 min.

For the molecule `CC(O)c1cncc2c(=O)n3c(cc12)-c1[nH]c2ccccc2c1CC3` (stereo not given), the LC retention time was 3.25 min.

In the case of `C=CCc1ccc(O)c(-c2cc(CC=C)ccc2O)c1` [5,5'-bis(prop-2-en-1-yl)-[1,1'-biphenyl]-2,2'-diol], the LC retention time is 2.78 min.

For the molecule `COC(=O)C1=CC(O)C23OOC1CC2(C)CCC3C(C)C` (stereo not given), the LC retention time was 3.72 min.

As to `CC[C@]12C=CCN3CC[C@]4(C(=C(C(=O)OC)C1)Nc1ccccc14)C32` (stereo not given in full), the LC retention time was 2.17 min.

Consider `C[C@@H]1CC2(NCCS2)[C@]2(O)OC3C[C@@]4(C=O)C(CCC5C4CC[C@]4(C)C(C6=CC(=O)OC6)CC(O)[C@]54O)CC3OC2O1` (stereo not given in full), for which the LC retention time is 0.365 min.

For `C=C1[C@@H](O)C[C@H]2[C@](C)(CO)CCC[C@]2(C)[C@H]1CC1C(C)=CCC2C(=O)C(OC)=CC(=O)C21c1cc(=O)c2c(O)cc(O)cc2o1` (stereo not given in full), the LC retention time was 3.02 min.

In the case of `CCCCCCCCCCCCO[C@@H]1O[C@@H](C)[C@H](O[C@@H]2O[C@@H](C)[C@H](OC(C)=O)[C@@H](O[C@@H]3O[C@@H](C)[C@H](OC(C)=O)[C@@H](O[C@@H]4O[C@@H](C)[C@H](OC(C)=O)[C@@H](OC(C)=O)[C@H]4O)[C@H]3OC(C)=O)[C@H]2O)[C@@H](O)[C@H]1O`, the LC retention time was 6.09 min.

As to `C=C1C(=O)C23C(O)CC4C(C)(C)CCCC4(CO)C2C(O)CC1C3O` (stereo not given), the LC retention time was 1.85 min.

Turning to `COc1cc2c3c(c1OC)Oc1ccc(cc1)CC1c4c(cc(OC)c(OC)c4Oc4ccc(cc4)CC3N(C)CC2)CCN1C` (stereo not given), the LC retention time is 1.79 min.

As to `CCC(C)C(=O)C1=C(O)C2(CC=C(C)C)CC(CCC(C)(C)OC(=O)C(F)(F)F)C(C)(C)C(C(CC(=O)O)c3ccccc3)=C2OC1=O` (stereo not given), the LC retention time is 6.11 min.

Consider `CC(CC[C@@H](C)[C@H]1CCC2C3C[C@H](OS(=O)(=O)O)[C@H]4C[C@H](OS(=O)(=O)O)C(OS(=O)(=O)O)C[C@]4(C)C3CC[C@@]21C)C(C)(C)C` (stereo not given in full), for which the LC retention time was 1.41 min.

Consider `CC(=O)OC(C)(C)/C=C/C(=O)[C@](C)(O)[C@H]1[C@H](O)C[C@@]2(C)C3CC=C4C(C[C@H](OC5OC(CO)C(O)C(O)C5O)C(=O)C4(C)C)[C@]3(C)C(=O)C[C@]12C` (stereo not given in full), for which the LC retention time was 2.74 min.

`CC[C@H]1NC2C[C@@]3(C(=O)N(OC)c4cc(OC)ccc43)C3OCC2C1[C@@H]3O` (stereo not given in full): the LC retention time is 1.32 min.

Consider `CC(C)=CCC1CC2(CC=C(C)C)C(O)=C(C(=O)CC(C)C)C(=O)OC2=C(C(CC(=O)O)c2ccccc2)C1(C)C` (stereo not given), for which the LC retention time was 6.29 min.

On to `COc1ccc(-c2oc3cc(OC)c(OC)c(O)c3c(=O)c2OC)cc1O`, for which the LC retention time was 2.62 min.

Consider `COc1c(O)c(OC)c(C(=O)C2CC=C(CCC=C(C)C)CC2c2ccccc2)c(O)c1OC` (stereo not given), for which the LC retention time is 5.76 min.

Turning to `COC1=CC(=O)C2(c3cc(=O)c4c(O)cc(O)cc4o3)C(CC=C(C)C2C[C@H]2[C@@H](C)[C@@H](O)C[C@H]3C(C)(C)C[C@H](O)C[C@]23C)C1=O` (stereo not given in full), the LC retention time is 1.14 min.

Turning to `CC(C)=CCCC(C)=CCC1=Cc2c(O)c3c(c(CC=C(C)C)c2OC1O)OC12C(=CC4CC1C(C)(C)OC2(CC=C(C)C(=O)O)C4=O)C3=O` (stereo not given), the LC retention time is 6.07 min.

On to `C[C@@H]1CC2(NCCS2)[C@]2(O)OC3C[C@@]4(C=O)C(CCC5C4CC[C@]4(C)C(C6=CC(=O)OC6)CC[C@]54O)CC3OC2O1` (stereo not given in full), for which the LC retention time is 0.611 min.

As to `COC1=C(C)C(=O)O/C1=C1\OC2CCCN3C(C4CC(C)C(=O)O4)CCC3C2C1C` (stereo not given), the LC retention time was 1.55 min.

For the molecule `CC[C@H]1NC2C[C@@]3(C(=O)N(OC)c4ccccc43)C3CC1C2CO3` (stereo not given in full), the LC retention time is 1.79 min.

Turning to `CCCC(CC(=O)O)C1=C2OC(=O)C(C(=O)CC(C)C)=C(O)C2(CC=C(C)C)CC(CC=C(C)C)C1(C)C` (stereo not given), the LC retention time is 6.51 min.

As to `CC(=O)O[C@@H](C[C@@H](C)C1=C2CC(O)C3[C@@]4(C)CCC(=O)C(C)(C)C4CC[C@]3(C)[C@@]2(C)CC1)[C@H]1OC1(C)C` (stereo not given in full), the LC retention time was 5.4 min.

Take `COC(=O)C1=COC(OC2OC(CO)C(O)C(O)C2O)C2C(O)CN3CCc4c([nH]c5ccccc45)[C@@H]3CC12` (stereo not given in full): the LC retention time is 1.29 min.

In the case of `CC1CC2CC(=O)C3CCCN4CCCC2C34C1` (stereo not given), the LC retention time was 1.06 min.

For `C=C(C)C1CCC2(C(=O)O)CCC3(C)C(CCC4C5(C)CCC(OC(=O)/C=C/c6ccc(O)c(O)c6)C(C)(C)C5CCC43C)C12` (stereo not given), the LC retention time was 5.65 min.

In the case of `CC1=C2CC3(C)C(C)CCCC3CC2(O)OC1=O` (stereo not given), the LC retention time is 3.6 min.

Turning to `CC(=O)OC/C=C(\C)C(=O)OC1C(=O)C(CO)=CC(OC(C)=O)C1C(C)C` (stereo not given), the LC retention time is 2.84 min.

As to `Cc1ccc2c(c1)C1(C(C)C)CCC2(C)OO1` (stereo not given), the LC retention time is 4.34 min.

Take `COc1cc2c3c(c1O)Oc1ccc(cc1)CC1c4c(cc(OC)c(O)c4Oc4ccc(cc4)CC3N(C)CC2)CCN1C` (stereo not given): the LC retention time was 1.44 min.

Take `C=CC12CN(C)C3C4COC(C[C@@H]41)[C@]1(C(=O)Nc4ccccc41)C32` (stereo not given in full): the LC retention time was 1.01 min.

For the molecule `CCC1C2CCCCN3C(C4CC(C)C(=O)O4)CC(C4C(C)C(=O)OC14)C23` (stereo not given), the LC retention time was 1.55 min.

As for `Cc1coc2c1C(=O)C(=O)c1c-2ccc2c(C)cccc12` [1,6-dimethyl-10H,11H-phenanthro[1,2-b]furan-10,11-dione], the LC retention time is 3.42 min.

For `C[C@@H]1CC2(NCCS2)C(=O)C(O[C@@H]2CC3CCC4C(CC[C@]5(C)[C@@H](C6=CC(=O)OC6)CC[C@]45O)[C@@]3(C=O)C[C@H]2O)O1` (stereo not given in full), the LC retention time was 1.89 min.

In the case of `CCC1CC2CC3(C(=O)OC)c4[nH]c5ccccc5c4CCN(C2OC)C13` (stereo not given), the LC retention time is 1.77 min.

Turning to `CCC1C2CCCCN3CCC(C4C(C)C(=O)OC14)C23` (stereo not given), the LC retention time was 1.34 min.

Regarding `CC(=O)OC(C)(C)C=CC(=O)C(C)(O)C1C(O)CC2(C)C3CC=C4C(=COC(=O)C4(C)C)C3(C)C(=O)CC12C` (stereo not given), the LC retention time was 3.14 min.

Regarding `C=C(C)[C@@]12OC3(/C=C/C=C\CCCCC)O[C@@H]1C1[C@@H]4O[C@]4(CO)[C@@H](O)[C@]4(O)C(=O)C(C)=CC4[C@@]1(O3)[C@H](C)[C@H]2OC(=O)c1ccccc1` (stereo not given in full), the LC retention time is 5.88 min.

For `COc1cc(O)ccc1CCC(c1ccc(O)cc1)c1cc(CCC(=O)c2ccc(O)cc2)c(O)cc1O` (stereo not given), the LC retention time is 2.1 min.

As for `CCCCCCCCCCCCCCC(O)C(O)CCC(O)C1CCC(CCCCCC(O)CC2=CC(C)OC2=O)O1` (stereo not given), the LC retention time is 6.01 min.

In the case of `CCN1CC2(COC(=O)c3ccccc3NC(=O)C(C)CC(=O)O)CCC(OC)C34C5CC6C(OC)CC(O)(C5C6OC)C(O)(C(OC)C23)C14` (stereo not given), the LC retention time was 2.37 min.

In the case of `C=C[C@H]1CN2CCC3c4ccccc4NC3[C@H]2C[C@@H]1/C(=C\OC)C(=O)OC` (stereo not given in full), the LC retention time is 2.64 min.

Regarding `CCC(C)C(=O)C1=C(O)C2(CC=C(C)C)CC(CCC(C)(C)NC(C)=O)C(C)(C)C(C(CC(=O)O)c3ccccc3)=C2OC1=O` (stereo not given), the LC retention time is 4.87 min.
